# Data as given in BindingDB's records for doi:10.3109/14756360903179443 (Institute of Chemical Technology, 2010).
# Counter-ions that a name gives are not always drawn.
# Columns and labels:
# Experiment in all cases: Biological Assay
# [1] = molecular target: T1, Bifunctional dihydrofolate reductase-thymidylate synthase (Toxoplasma gondii, UniProt Q07422)
# T1 sequence (Q07422 whole entry): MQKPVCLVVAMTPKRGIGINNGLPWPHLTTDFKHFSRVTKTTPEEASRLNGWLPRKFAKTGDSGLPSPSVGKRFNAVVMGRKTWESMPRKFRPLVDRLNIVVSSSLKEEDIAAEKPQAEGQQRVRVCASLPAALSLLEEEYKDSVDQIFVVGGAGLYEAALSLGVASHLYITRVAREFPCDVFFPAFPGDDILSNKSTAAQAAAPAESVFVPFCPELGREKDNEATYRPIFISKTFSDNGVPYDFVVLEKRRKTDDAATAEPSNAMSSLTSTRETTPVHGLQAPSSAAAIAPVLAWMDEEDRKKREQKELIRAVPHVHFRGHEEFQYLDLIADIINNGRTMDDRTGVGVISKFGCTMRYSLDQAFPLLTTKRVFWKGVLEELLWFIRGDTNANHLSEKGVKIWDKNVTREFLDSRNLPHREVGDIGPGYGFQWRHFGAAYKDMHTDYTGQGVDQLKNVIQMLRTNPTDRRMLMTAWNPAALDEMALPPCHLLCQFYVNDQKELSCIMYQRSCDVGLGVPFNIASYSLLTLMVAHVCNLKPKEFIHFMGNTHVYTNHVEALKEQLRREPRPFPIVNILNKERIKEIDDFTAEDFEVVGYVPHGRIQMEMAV
# Procedure: (§1) The synthesized compounds were evaluated for their ability to inhibit DHFR from pc, tg, ma, and rl using a continuous spectrophotometric assay measuring oxidation at […] of NADPH at 37°C under conditions of saturating substrate and cofactor as previously described [Broughton et al., Antimicrob. Agents Chemother., 35:1348-55; Chio et al., Antimicrob. Agents Chemother., 37:1914-23].
# [2] = molecular target: T2, Dihydrofolate reductase (Pneumocystis carinii, UniProt P16184)
# T2 sequence (P16184 whole entry): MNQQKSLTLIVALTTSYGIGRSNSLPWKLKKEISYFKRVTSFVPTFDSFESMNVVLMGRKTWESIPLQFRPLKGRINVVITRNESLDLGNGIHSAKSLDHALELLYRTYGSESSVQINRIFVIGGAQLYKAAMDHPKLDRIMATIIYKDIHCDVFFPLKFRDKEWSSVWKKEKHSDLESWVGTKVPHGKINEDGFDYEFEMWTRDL
# Procedure: as §1
# [3] = molecular target: T3, Dihydrofolate reductase (Rattus norvegicus, UniProt Q920D2)
# T3 sequence (Q920D2 whole entry): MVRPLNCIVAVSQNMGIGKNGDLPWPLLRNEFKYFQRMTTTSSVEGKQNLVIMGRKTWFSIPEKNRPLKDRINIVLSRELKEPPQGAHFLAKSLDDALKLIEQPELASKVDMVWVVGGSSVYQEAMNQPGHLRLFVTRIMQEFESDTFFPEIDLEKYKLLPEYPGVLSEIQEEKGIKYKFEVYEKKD
# Procedure: as §1
# [4] = molecular target: T4, Dihydrofolate reductase (Mycobacterium avium, UniProt O30463)
# T4 sequence (O30463 whole entry): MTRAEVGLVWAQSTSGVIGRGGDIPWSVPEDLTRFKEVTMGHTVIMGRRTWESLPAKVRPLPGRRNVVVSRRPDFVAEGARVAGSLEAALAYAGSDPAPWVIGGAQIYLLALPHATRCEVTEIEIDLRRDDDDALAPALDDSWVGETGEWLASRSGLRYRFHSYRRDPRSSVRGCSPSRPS
# Procedure: as §1
SMILES,IC50 [1],IC50 [2],IC50 [3],IC50 [4]
CC1(C)N=C(N)N=C(N)N1c1ccc(OCc2ccccc2)cc1,0.032 µM,5.4 µM,0.12 µM,14.4 µM
"CC1(C)N=C(N)N=C(N)N1c1ccc(OCc2ccc(Cl)cc2Cl)cc1 [1-(4-(2,4-Dichlorobenzyloxy)phenyl)-6,6-dimethyl-1-,6-dihydro-1,3,5-triazine-2,4-diamine hydrochloride (B2-04)]",0.029 µM,1.08 µM,0.018 µM,11.2 µM
"CC1(C)N=C(N)N=C(N)N1c1ccc(OCc2ccccc2Cl)cc1 [1-(4-(2-Chlorobenzyloxy)phenyl)-6,6-dimethyl-1,6-dihydro-1,3,5-triazine-2,4-diamine hydrochloride (B2-03)]",0.04 µM,2.53 µM,0.073 µM,10.3 µM
"CC1(C)N=C(N)N=C(N)N1c1ccc(OCc2cccc(Cl)c2)cc1 [1-(4-(3-Chlorobenzyloxy)phenyl)-6,6-dimethyl-1,6-dihydro-1,3,5-triazine-2,4-diamine hydrochloride (B2-02)]",0.02 µM,1.11 µM,0.034 µM,4.08 µM
"CC1(C)N=C(N)N=C(N)N1c1ccc(OCc2ccc(Br)cc2)cc1 [1-(4-(4-Bromobenzyloxy)phenyl)-6,6-dimethyl-1,6-dihydro-1,3,5-triazine-2,4-diamine hydrochloride (B2-05)]",0.033 µM,0.829 µM,0.033 µM,7.32 µM
"COc1ccc(COc2ccc(N3C(N)=NC(N)=NC3(C)C)cc2)cc1 [1-(4-(4-Methoxybenzyloxy)phenyl)-6,6-dimethyl-1,6-dihydro-1,3,5-triazine-2,4-diamine hydrochloride (B2-06)]",0.019 µM,1.69 µM,0.048 µM,3.38 µM
"CC1(C)N=C(N)N=C(N)N1c1ccc(OCc2ccc(-c3ccccc3)cc2)cc1 [1-(4-(Biphenyl-4-ylmethoxy)phenyl)-6,6-dimethyl-1,6-dihydro-1,3,5-triazine-2,4-diamine hydrochloride (B2-07)]",0.012 µM,0.403 µM,0.026 µM,10.2 µM
"CC1(C)N=C(N)N=C(N)N1c1ccc(OCCN2C(=O)c3ccccc3C2=O)cc1 [2-(2-(4-(4,6-Diamino-2,2-dimethyl-1,3,5-triazin-1(2H)-yl)phenoxy)ethyl)isoindoline-1,3-dione hydrochloride (A2-01)]",0.424 µM,15.4 µM,1.16 µM,44.6 µM
"CC1(C)N=C(N)N=C(N)N1c1ccc(OCC(O)CN2C(=O)c3ccccc3C2=O)cc1 (stereo not given) [2-(3-(4-(4,6-Diamino-2,2-dimethyl-1,3,5-triazin-1(2H)-yl)phenoxy)-2-hydroxypropyl)isoindoline-1,3-dione hydrochloride (A2-04)]",0.523 µM,34.6 µM,1.94 µM,154 µM
"CC1(C)N=C(N)N=C(N)N1c1ccc(OCCCN2C(=O)c3ccccc3C2=O)cc1 [2-(3-(4-(4,6-Diamino-2,2-dimethyl-1,3,5-triazin-1(2H)-yl)phenoxy)propyl)isoindoline-1,3-dione hydrochloride (A2-02)]",0.169 µM,6.49 µM,0.556 µM,35.2 µM
"CC1(C)N=C(N)N=C(N)N1c1ccc(OCCCCN2C(=O)c3ccccc3C2=O)cc1 [2-(4-(4-(4,6-Diamino-2,2-dimethyl-1,3,5-triazin-1(2H)-yl)phenoxy)butyl)isoindoline-1,3-dione (A2-03)]",0.079 µM,2.61 µM,0.033 µM,8.9 µM
N=C(N)NC(=N)Nc1ccc(OCc2ccccc2)cc1 [N-[4-(Benzyloxy)phenyl]imidodicarbonimidic diamide hydrochloride (B1-01)],132 µM,132 µM,132 µM,132 µM
NC(N)=N/C(N)=N/c1ccc(OCc2ccc(-c3ccccc3)cc2)cc1 [N-[4-(Biphenyl-4-ylmethoxy)phenyl]imidodicarbonimidic diamide hydrochloride (B1-07)],111 µM,104 µM,67 µM,104 µM
"N=C(N)NC(=N)Nc1ccc(OCCN2C(=O)c3ccccc3C2=O)cc1 [N-{4-[2-(1,3-Dioxo-1,3-dihydro-2H-isoindol-2-yl)ethoxy]phenyl}imidodicarbonimidic diamide hydrochloride (A1-01)]",40.3 µM,51.4 µM,67.7 µM,51.4 µM
"N=C(N)NC(=N)Nc1ccc(OCCCN2C(=O)c3ccccc3C2=O)cc1 [N-{4-[3-(1,3-Dioxo-1,3-dihydro-2H-isoindol-2-yl)propoxy]phenyl}imidodicarbonimidic diamide hydrochloride (A1-02)]",135 µM,106 µM,106 µM,106 µM
"NC(N)=N/C(N)=N/c1ccc(OCc2ccc(Cl)cc2Cl)cc1 [N-{4-[(2,4-Dichlorobenzyl)oxy]phenyl}imidodicarbonimidic diamide hydrochloride (B1-04)]",111 µM,123 µM,27.9 µM,111 µM
N=C(N)NC(=N)Nc1ccc(OCc2ccccc2Cl)cc1 [N-{4-[(2-Chlorobenzyl)oxy]phenyl}imidodicarbonimidic diamide hydrochloride (B1-03)],9.95 µM,293 µM,20.8 µM,152 µM
NC(N)=N/C(N)=N/c1ccc(OCc2cccc(Cl)c2)cc1 [N-{4-[(3-Chlorobenzyl)oxy]phenyl}imidodicarbonimidic diamide hydrochloride (B1-02)],58.5 µM,104 µM,68.7 µM,63.8 µM
COc1cccc(COc2ccc(NC(=N)NC(=N)N)cc2)c1 [N-{4-[(3-Methoxybenzyl)oxy]phenyl}imidodicarbonimidic diamide hydrochloride (B1-06)],8.4 µM,15.5 µM,14.7 µM,15.5 µM
N=C(N)NC(=N)Nc1ccc(OCc2ccc(Br)cc2)cc1 [N-{4-[(4-Bromobenzyl)oxy]phenyl}imidodicarbonimidic diamide hydrochloride (B1-05)],21.4 µM,164 µM,74.9 µM,127 µM
